Experiments:
IKKε = molecular target: T1, IKKε (Homo sapiens, UniProt Q14164); assay: In-vitro IKKε kinase assay ([γ33]ATP filter-plate); format: biochemical; settings: text bins; read-out: IC50 for inhibition of the kinase activity of IKKε
T1 construct: His-tag; made in house; host or cells: Sf9 insect cells
T1 sequence (Q14164 1-716): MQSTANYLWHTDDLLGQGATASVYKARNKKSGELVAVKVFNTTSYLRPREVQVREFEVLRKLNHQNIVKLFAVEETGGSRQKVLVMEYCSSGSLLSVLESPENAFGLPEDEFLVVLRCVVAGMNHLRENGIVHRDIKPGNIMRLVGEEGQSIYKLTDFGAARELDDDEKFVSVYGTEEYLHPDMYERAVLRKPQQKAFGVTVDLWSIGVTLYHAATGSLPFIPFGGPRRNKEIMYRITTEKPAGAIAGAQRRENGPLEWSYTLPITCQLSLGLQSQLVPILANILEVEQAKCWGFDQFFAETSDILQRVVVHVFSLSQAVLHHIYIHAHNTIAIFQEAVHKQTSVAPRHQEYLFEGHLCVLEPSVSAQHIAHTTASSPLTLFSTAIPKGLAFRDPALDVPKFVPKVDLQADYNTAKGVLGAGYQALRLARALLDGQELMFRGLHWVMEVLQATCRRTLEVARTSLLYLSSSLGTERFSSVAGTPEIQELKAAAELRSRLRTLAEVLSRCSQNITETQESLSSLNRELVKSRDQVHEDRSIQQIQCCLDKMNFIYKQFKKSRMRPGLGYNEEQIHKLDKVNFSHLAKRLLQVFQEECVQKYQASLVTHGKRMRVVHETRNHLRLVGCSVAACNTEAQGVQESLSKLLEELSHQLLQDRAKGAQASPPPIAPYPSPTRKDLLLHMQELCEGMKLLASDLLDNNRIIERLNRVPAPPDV
Method in brief: (§1)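 His-tagged Sf9-expressed kinases at 0.1 or 0.02 μg/ml (TBK1) and 0.1 or 0.015 μg/ml (IKKε) for normal and sensitized formats, with myelin basic protein or casein substrate. ATP was at 2×Km (60 μM TBK1, 32 μM IKKε) plus 0.3 μCi [γ33]ATP. Reactions ran 30-45 min, were captured on P-81 filters, and counts were normalized to DMSO.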

[1] = test system: IKKε-mediated phosphorylation of IRF3; assay: In-situ phosphorylation of IRF3 (pIRF3 Ser396 ELISA) in HEK293T cells cotransfected with IRF3 and IKKε; format: cell-based; settings: Homo sapiens, HEK-293T; HEK293T cells, 20 hours, text bins; read-out: IC50 for inhibition of the in-situ IKKε-mediated phosphorylation of IRF3
Protocol: HEK293T cells were cotransfected in a 10-cm dish with IRF3 and IKKε expression plasmids using Lipofectamine 2000 (Invitrogen, Carlsbad, Calif.). The following day, cells were replated at 20,000 per well in 96-well plates and treated with test compounds (compounds according to Formula I) for 20 hours. Cell lysates were prepared and analyzed using an ELISA for phospho-Ser396 (anti-IRF3 capture antibody, Santa Cruz Biotechnology, Inc., Santa Cruz, Calif.; anti-p-Ser396 IRF3 detection antibody, Cell Signaling, Danvers, Mass.). pIRF3 levels in compound treated cells were normalized to DMSO treated cells (no compound). Cell viability was assayed in a parallel set of plates to monitor cytotoxic effects of the test compounds (CellTiter-Glo, Promega, Inc., Madison, Wis.). TBK1 activity was tested by Western blotting using a phospho-specific IRF7 antibody. Similar to above, HEK293T cells were transfected with IRF7 and TBK1 expression plasmids. Cells were seeded in 12-well plates at 150,000 per well and treated overnight with test compounds. Protein lysates were prepared and processed for Western blotting followed by detection using a phosphor-Ser477/Ser479 IRF7 antibody (BD Biosciences, San Jose, Calif.)

TBK1 = molecular target: T2, TBK1 (Homo sapiens, UniProt Q9UHD2); assay: In-vitro TBK1 kinase assay ([γ33]ATP filter-plate); format: biochemical; settings: text bins; read-out: IC50 for inhibition of the kinase activity of TBK1
T2 construct: His-tag; made in house; host or cells: Sf9 insect cells
T2 sequence (Q9UHD2 1-729): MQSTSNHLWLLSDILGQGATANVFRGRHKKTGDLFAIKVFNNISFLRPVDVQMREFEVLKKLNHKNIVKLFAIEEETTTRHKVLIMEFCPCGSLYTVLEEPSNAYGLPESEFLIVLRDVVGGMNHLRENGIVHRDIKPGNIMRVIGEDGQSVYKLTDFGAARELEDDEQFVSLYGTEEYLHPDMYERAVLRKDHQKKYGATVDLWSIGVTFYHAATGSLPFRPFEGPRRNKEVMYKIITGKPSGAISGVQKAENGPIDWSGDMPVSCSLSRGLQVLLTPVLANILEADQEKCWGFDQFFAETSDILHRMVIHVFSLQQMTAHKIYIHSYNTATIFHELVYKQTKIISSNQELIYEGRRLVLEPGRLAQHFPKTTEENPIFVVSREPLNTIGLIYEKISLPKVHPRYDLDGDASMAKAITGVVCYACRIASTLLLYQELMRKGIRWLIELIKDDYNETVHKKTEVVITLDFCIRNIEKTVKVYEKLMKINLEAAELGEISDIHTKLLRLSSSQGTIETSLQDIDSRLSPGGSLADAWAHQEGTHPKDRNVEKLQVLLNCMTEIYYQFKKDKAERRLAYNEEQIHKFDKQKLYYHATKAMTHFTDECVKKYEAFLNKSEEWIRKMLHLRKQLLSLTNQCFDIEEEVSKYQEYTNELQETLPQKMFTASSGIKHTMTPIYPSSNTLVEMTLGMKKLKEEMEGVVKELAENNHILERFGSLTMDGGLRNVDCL
Method in brief: as §1

SMILES | IC50 (IKKε) [nM] | IC50 [1] [nM] | IC50 (TBK1) [nM]
CC(C)COc1ccc(-c2ccnc(Nc3ccc(N4CCN(CCO)CC4)cc3)n2)cc1C#N [compound 442, 5-[2-({4-[4-(2-Hydroxyethyl)piperazin-1-yl]phenyl}amino)pyrimidin-4-yl]-2-(2-methylpropoxy) benzonitrile] | < 5 | < 100 | 
CCN(CC)CCOc1cc(Nc2nccc(-c3ccc(OCC4CC4)c(C#N)c3)n2)ccc1F [compound 535, 2-(Cyclopropylmethoxy)-5-[2-({3-[2-(diethylamino)ethoxy]-4-fluorophenyl}amino)pyrimidin-4-yl]benzonitrile] | < 5 | 250 to 500 | 
N#Cc1cc(-c2ccnc(Nc3ccc(F)c(OC4CCNC4)c3)n2)ccc1OC1CCOCC1 (stereo not drawn) [compound 541, 5-(2-{[4-Fluoro-3-(pyrrolidin-3-yloxy)phenyl]amino}pyrimidin-4-yl)-2-(tetrahydro-2H-pyran-4-yloxy)benzonitrile] | < 5 | 100 to 250 | 
N#Cc1cc(-c2ccnc(Nc3cccc(CN4CCCC4)c3)n2)ccc1OC1CCOCC1 [compound 542, 5-(2-{[3-(Pyrrolidin-1-ylmethyl)phenyl]amino}pyrimidin-4-yl)-2-(tetrahydro-2H-pyran-4-yloxy)benzonitrile] | < 5 | < 100 | 
CCc1cccc(Nc2nccc(-c3ccc(O[C@@H]4CCN(C(=O)CO)C4)c(C#N)c3)n2)c1 [compound 544, 5-{2-[(3-Ethylphenyl)amino]pyrimidin-4-yl}-2-{[(3R)-1-(hydroxyacetyl)pyrrolidin-3-yl]oxy}benzonitrile] | < 5 | 250 to 500 | 
Cn1ccc(C(=O)Nc2cccc(Nc3nccc(-c4ccc(OC5CCOCC5)c(C#N)c4)n3)c2)n1 [compound 547, N-[3-({4-[3-Cyano-4-(tetrahydro-2H-pyran-4-yloxy)phenyl]pyrimidin-2-yl}amino)phenyl]-1-methyl-1H-pyrazole-3-carboxamide] | < 5 | 100 to 250 | 
CN(C)Cc1cccc(Nc2nccc(-c3ccc(OC4CCOCC4)c(C#N)c3)n2)c1 [compound 548, 5-[2-({3-[(Dimethylamino)methyl]phenyl}amino)pyrimidin-4-yl]-2-(tetrahydro-2H-pyran-4-yloxy)benzonitrile] | < 5 | < 100 | 
COc1cc(Nc2ncc(F)c(-c3ccc(O[C@@H]4CCN(C(=O)CO)C4)c(C#N)c3)n2)ccc1N1CCOCC1 [compound 552, 5-(5-Fluoro-2-{[3-methoxy-4-(morpholin-4-yl)phenyl]amino}pyrimidin-4-yl)-2-{[(3R)-1-(hydroxyacetyl)pyrrolidin-3-yl]oxy}benzonitrile] | < 5 | < 100 | 
N#Cc1cc(-c2ccnc(Nc3ccc(S(N)(=O)=O)cc3)n2)ccc1OC1CCOCC1 [compound 564, 4-({4-[3-Cyano-4-(tetrahydro-2H-pyran-4-yloxy)phenyl]pyrimidin-2-yl}amino) benzenesulfonamide] | < 5 | 100 to 250 | 
COC1CN(C(C)c2ccc(Nc3nccc(-c4ccc(OC5CCOCC5)c(C#N)c4)n3)cc2)C1 (stereo not drawn) [compound 571, 5-[2-({4-[1-(3-Methoxyazetidin-1-yl)ethyl]phenyl}amino)pyrimidin-4-yl]-2-(tetrahydro-2H-pyran-4-yloxy)benzonitrile] | < 5 | < 100 | 
CCN(CC)CCOc1cc(Nc2nccc(-c3ccc(OC4CCN(C(=O)[C@H](C)O)CC4)c(C#N)c3)n2)ccc1F [compound 577, 5-[2-({3-[2-(Diethylamino)ethoxy]-4-fluorophenyl}amino)pyrimidin-4-yl]-2-({1-[(2S)-2-hydroxypropanoyl]piperidin-4-yl}oxy)benzonitrile] | < 5 | 250 to 500 | 
N#Cc1cc(-c2ccnc(Nc3cccc(-n4cccn4)c3)n2)ccc1OC1CCOCC1 [compound 578, 5-(2-{[3-(1H-Pyrazol-1-yl)phenyl]amino}pyrimidin-4-yl)-2-(tetrahydro-2H-pyran-4-yloxy)benzonitrile] | < 5 | 250 to 500 | 
N#Cc1cc(-c2ccnc(Nc3ccc(F)c(OCCN4CCNCC4)c3)n2)ccc1OCC1CC1 [compound 654, 2-(Cyclopropylmethoxy)-5-[2-({4-fluoro-3-[2-(piperazin-1-yl)ethoxy]phenyl}amino)pyrimidin-4-yl]benzonitrile] | < 5 |  | < 10
COCCNC(=O)c1ccc(Nc2nccc(-c3ccc(OCC4CC4)c(C#N)c3)n2)cc1 [compound 666] | < 5 |  | < 10

Results, then the compound that gave them:

IC50 (IKKε) [nM] | IC50 [1] [nM] | IC50 (TBK1) [nM] | SMILES
< 5 | < 100 |  | N#Cc1cc(-c2ccnc(Nc3ccc(N4CCN(CCO)CC4)cc3)n2)ccc1OC1CCOCC1 [compound 512, 5-[2-({4-[4-(2-hydroxyethyl)piperazin-1-yl]phenyl}amino)pyrimidin-4-yl]-2-(tetrahydro-2H-pyran-4-yloxy)benzonitrile]
< 5 | < 100 |  | COCCC(=O)Nc1cccc(Nc2nccc(-c3ccc(OC4CCOCC4)c(C#N)c3)n2)c1 [compound 538, N-[3-({4-[3-Cyano-4-(tetrahydro-2H-pyran-4-yloxy)phenyl]pyrimidin-2-yl}amino)phenyl]-3-methoxypropanamide]
< 5 | < 100 |  | CN(C)CCNc1cccc(Nc2nccc(-c3ccc(OC4CCOCC4)c(C#N)c3)n2)c1 [compound 540, 5-{2-[(3-{[2-(Dimethylamino)ethyl]amino}phenyl)amino]pyrimidin-4-yl}-2-(tetrahydro-2H-pyran-4-yloxy)benzonitrile]
< 5 | 250 to 500 |  | N#Cc1cc(-c2ccnc(Nc3ccc(F)c(OCC4COCCN4)c3)n2)ccc1OC1CCOCC1 (stereo not drawn) [compound 545]
< 5 | 100 to 250 |  | CC(C)(O)C(=O)Nc1cccc(Nc2nccc(-c3ccc(OC4CCOCC4)c(C#N)c3)n2)c1 [compound 563, N-[3-({4-[3-Cyano-4-(tetrahydro-2H-pyran-4-yloxy)phentyl]pyrimidin-2-yl}amino)phenyl]-2-hydroxy-2-methylpropanamide]
< 5 |  | < 10 | CC(C)COc1ccc(-c2ccnc(Nc3ccc(CS(=O)(=O)NCCO)cc3)n2)cc1C#N [compound 645, 1-[4-({4-[3-Cyano-4-(2-methylpropoxy)phenyl]pyrimidin-2-yl}amino)phenyl]-N-(2-hydroxyethyl) methanesulfonamide]
< 5 |  | < 10 | COC1CN(C(=O)c2ccc(Nc3nccc(-c4ccc(NC(=O)C5CC5)c(C#N)c4)n3)cc2)C1 [compound 665, N-{2-Cyano-4-[2-({4-[(3-methoxyazetidin-1-yl)carbonyl]phenyl}amino)pyrimidin-4-yl]phenyl} cyclopropane-carboxamide]

From patent US20150352108A1, “AMINO-PYRIMIDINE COMPOUNDS AS INHIBITORS OF TBK1 AND/OR IKK EPSILON” (Alzheimer's Institute of America, priority 2009, published 2015)
